From US20250188058A1, “NEW FORMS OF N-(5-((6,7-DIMETHOXYQUINOLIN-4-YL)OXY)PYRIDIN-2-YL)-1-PROPYL-4-(2,2,2-TRIFLUOROETHOXY)-1H-PYRAZOLE-3-CARBOXAMIDE HYDROCHLORIDE” (QURIENT CO., LTD., priority 2022, published 2025)

Legend:
[1] = Dynamic Vapour Sorption (DVS) hygroscopicity; type: physicochemical; conditions: for total weight gain between 40-80% RH: DVS isothermal plot, 25° C.
Description: Dynamic Vapour Sorption (DVS) was performed using a Hiden Analytical Instruments IGAsorp Vapour Sorption Balance. Approximately 30 mg of sample was placed into a wire-mesh vapour sorption balance pan, loaded into the IGAsorp vapour sorption balance and held at 25° C.±0.1° C. The sample was subjected to a step profile from o to 90% RH at 10% increments, followed by desorption from 90% RH to 0% RH at 10% increments. The equilibrium criterion was set to 99.0% step completion within a minimum of 60 minutes and a maximum of 5 hours for each increment. The weight change during the sorption cycle was monitored, allowing for the hygroscopic nature of the sample to be determined. The data collection interval was in seconds.

[2] = Humidity stress using crystalline material (HCl form C); type: physicochemical; conditions: 8 days
Description: Approximately 25 mg of […] […] HCl form C material and were stressed for 8 days. All samples remained as […] HCl form C material.

[3] = Stress at 40° C./75% relative humidity for 15 days; type: physicochemical; conditions: 40° C./75% RH
Description: HCl form C was stressed at 40° C./75% relative humidity for 15 days.
Form A was stressed at 40° C./75% for 15 days. […] Solvent was not detected.

[4] = Aqueous solubility of crystalline salts of Q702 (slurried overnight in deionised water, HPLC); conditions: crystalline salts slurried overnight in deionised water (pH = 6.8); for pH of solution: solution pH measured
Description: (§1) Solubility was measured by a) solubility estimation by aliquot addition and b) HPLC: • a) Solubility estimation by aliquot-addition
(§2) Samples were held at ambient temperature for 18 hours to maximize the chance of precipitation. Any recoverable solids were analyzed by XRPD.
(§3) The HPLC method used to determine equilibrium solubility in a variety of solvents is outlined. […] A phenomenex Kinetex column was used with a particle size of 2.6 μm.

[5] = Pharmacokinetic study in plasma after oral administration; type: in vivo, male SD rats; conditions: 30 mg/kg; for AUC(0-t) / Cmax / Tmax / half-life: vehicle water
Description: In this example, pharmacokinetic studies are performed using the form A of the HCl-salt of Q702 and the free base (FB) thereof in plasma, following oral administration of such form A and free base to male SD rats.
Appropriate amounts of the form A of Q702 HCl or of free base were accurately weighed and mixed with appropriate volume of vehicle (water) to get a clear solution or uniform suspension. Male SD rats were dosed with a nominal dose of 30 mg/kg body weight. After dosing, 0.2 mL blood was collected per time point at time points o h, 0.083 h, 0.25 h, 0.5 h, 1 h, 2 h, 4 h, 8 h, 12 h, and 24 h. For such blood collection, blood was collected from the jugular vein or other suitable site of each animal into pre-chilled plastic microcentrifuged tubes containing 5 μL of 1000 IU heparin Na as anti-coagulant. Blood samples were processed for plasma by centrifugation at approximately 4° C., 3200 g for ten minutes. Plasma was collected and transferred into pre-labelled polypropylene tubes, snap-frozen over dry ice and kept at −60° C. or lower until LC-MS/MS-analysis was performed. LC-MS/MS methodology was performed using a calibration curve with at least 6 non-zero calibration standards.
Plasma concentrations versus time were plotted and analysed by non-compartmental approaches using the Phoenix WinNonlin 6.3 software program. Related pharmacokinetic parameters were calculated according to dosing route, e. g.

[6] = Long term stability of Form A of Q702 HCl salt; type: physicochemical
Description: Form A of […] HCl salt was tested for long term stability to 24 months.

[7] = Solubility estimation by aliquot addition in solvents; type: physicochemical; conditions: organic solvent or mixture, thermodynamic from solid
Description: The aliquot volumes were typically 100-1000 μL. Complete dissolution of the test material was determined by visual inspection. The solubility was estimated from these experiments based on the total solvent used to provide complete dissolution. […] From the infrared (IR) transmission data of the sample vials, dissolution and precipitation events were recorded as the point of complete transmission of IR and the onset of turbidity by IR respectively. […] Any recoverable solids were analyzed by XRPD. […] HCl salt was estimated in 9 solvent systems using the aliquot addition method.

physchem = conditions: pH 6.8, water, thermodynamic from solid
Description: as §1, §2, §3

[8] = Humidity stress using amorphous material; type: physicochemical; conditions: 6 days
Source text: X-ray amorphous material generated from freeze drying was exposed to various controlled humidity conditions for 6 days before analysis by XRPD. Both samples remained as amorphous material.

[9] = Thermal stressing of amorphous Q702 HCl salt; type: physicochemical; conditions: 50° C., 7 days, under nitrogen in a sealed vial

## CCCn1cc(OCC(F)(F)F)c(C(=O)Nc2ccc(Oc3ccnc4cc(OC)c(OC)cc34)cn2)n1.Cl [HCl form C]
[1]
  total weight gain between 40-80% RH: 0.7 % w/w
[1]; after DVS analysis
  XRPD analysis of post DVS sample: no physical change in the sample was detected
[1]; based on DVS weight gain 40-80% RH
  hygroscopicity, European Pharmacopoeia classification: slightly hygroscopic
[2]; 40° C./75% RH stress
  % Weight change: −1.96%
[2]; 40° C./75% RH
  weight loss: 1.96%
[2]; 75% RH stress
  % Weight change: −11.05%
  weight loss: 11.05%
[2]; 98% RH stress
  % Weight change: +2.99%
[2]; 98% RH stress, listed as Q702 HCl form C
  % Weight change: 2.99%
[3]
  XRPD after stress: remained as HCl salt form C

## O=C(O)CCC(=O)C(=O)O [Ketoglutarate]
[4]
  pH of solution: 2.91

## CCCn1cc(OCC(F)(F)F)c(C(=O)Nc2ccc(Oc3ccnc4cc(OC)c(OC)cc34)cn2)n1.Cl [Q702 HCl form A, N-(5-((6,7-dimethoxyquinolin-4-yl)oxy)pyridin-2-yl)-1-propyl-4-(2,2,2-trifluoroethoxy)-1H-pyrazole-3-carboxamide hydrochloride]
[1]; hydrochloride
  total weight gain between 40-80% RH: 0.5 % w/w
[5]; versus Q702 free base
  plasma exposure level higher than that of the free base (mean AUC-values): 33%
[5]; male, SD, rat, plasma
  AUC(0-t): 430 µg·h/mL
  Cmax: 37000 ng/mL
  Tmax: 2.83 h
  half-life: 10.3 h
[5]; male, SD, rat, plasma, test = form A of HCl-salt, ref = free base of Q702, read-out: relative bioavailability
  bioavailability: 144%
[3]; hydrochloride
  XRPD after stress: remained as form A
[6]; 25 ± 2° C./60 ± 5% RH, 12 M
  Assay: 94.0%
  Purity: 100.0%
  XRPD: Consistent
[6]; 25 ± 2° C./60 ± 5% RH, 24 M
  Assay: 94.6%
  Purity: 99.9%
  XRPD: Consistent
[6]; 40 ± 2° C./75 ± 5% RH, 6 M
  Assay: 94.8%
  Purity: 99.9%
  XRPD: Consistent
[6]; Initial
  Assay: 95.9%
  Purity: 99.9%
  XRPD: Consistent
[6]; tested to 24 months
  long term stability (XRPD results): stable to 24 months

## CCCn1cc(OCC(F)(F)F)c(C(=O)Nc2ccc(Oc3ccnc4cc(OC)c(OC)cc34)cn2)n1.Cl [Q702 HCl salt, N-(5-((6,7-dimethoxyquinolin-4-yl)oxy)pyridin-2-yl)-1-propyl-4-(2,2,2-trifluoroethoxy)-1H-pyrazole-3-carboxamide hydrochloride]
[7]; Acetone, 20° C., read-out: Solubility Range
  solubility: < 20 mg/mL
[7]; Acetonitrile, 20° C., read-out: Solubility Range
  solubility: < 20 mg/mL
[7]; Dichloromethane, 20° C., read-out: Solubility Range
  solubility: 66 to 100 mg/mL
[7]; Dimethyl sulfoxide, 20° C., read-out: Solubility Range
  solubility: > 201 mg/mL
[7]; Ethanol, 20° C., read-out: Solubility Range
  solubility: 67 to 101 mg/mL
[7]; Ethyl acetate, 20° C., read-out: Solubility Range
  solubility: < 20 mg/mL
[7]; Methanol, 20° C., read-out: Solubility Range
  solubility: 49 to 66 mg/mL
[7]; Methyl tert-butyl ether, 20° C., read-out: Solubility Range
  solubility: < 20 mg/mL
[7]; Tetrahydrofuran, 20° C., read-out: Solubility Range
  solubility: < 20 mg/mL
[7]; in four of the 9 solvents at ambient temperature, read-out: solubility
  solubility: > 20 mg/mL
physchem
  solubility: 1.95 mg/mL

## CCCn1cc(OCC(F)(F)F)c(C(=O)Nc2ccc(Oc3ccnc4cc(OC)c(OC)cc34)cn2)n1 [Q702 free base, N-(5-((6,7-dimethoxyquinolin-4-yl)oxy)pyridin-2-yl)-1-propyl-4-(2,2,2-trifluoroethoxy)-1H-pyrazole-3-carboxamide]
[5]; male, SD, rat, plasma
  AUC(0-t): 323 µg·h/mL
  Cmax: 33800 ng/mL
  Tmax: 3.33 h
  half-life: 10.9 h

## CCCn1cc(OCC(F)(F)F)c(C(=O)Nc2ccc(Oc3ccnc4cc(OC)c(OC)cc34)cn2)n1.Cl [amorphous Q702 HCl salt]
[8]; 40° C./75% RH stress
  XRPD after humidity stress: amorphous
[8]; 59% RH stress
  XRPD after humidity stress: amorphous
[9]; listed as Amorphous Q702 HCl salt
  XRPD after thermal stress: remained amorphous
[9]; listed as amorphous
  XRPD after thermal stress: amorphous

## Tosylate
[4]
  Aq Solub: 0.026 mg/mL
  pH of solution: 4.26
